Assay results taken from US10646454B2, “Microcell delivery systems including charged or magnetic particles for regulating rate of administration of actives” (E INK CALIFORNIA, LLC, priority 2017, dated 2020).
Like-named read-outs stand apart in the source and are kept apart here.

Details: for release profile: versus control, FIG. 12
Method: Two layers of dialysis tubing (Thermo-Fisher, Waltham, Mass.) were cut to fit across the opening at the joint of the Franz cell. For control measurements, 500 μL of a 1.3 mg/mL solution of nicotine in D.I. water was pipetted into the top of the cell. Samples were removed from the receptor cell at various time points as indicated in the graph in FIG. 12.
Subsequent experiments added small amounts of polymer-coated carbon nanoparticles between the two layers of dialysis tubing. The overall coverage was approximated by taking a photograph of the combined double layer nanoparticle sandwich from the top and assessing the darkness of the layer. […] For approximately 35% coverage [circles] and for full (100%) coverage [triangles], a sample of 500 μL of a 1.3 mg/mL solution of nicotine in D.I. water was pipetted into the top of the cell and samples were removed at various time points.

CN1CCCC1c1cccnc1 (stereo not drawn) [nicotine]
release profile (approximately 35% coverage with polymer-coated carbon nanoparticles between two layers of dialysis tubing): very similar to the control
reduction in the total nicotine delivered over 24 hours (full (100%) coverage with polymer-coated carbon nanoparticles between two layers of dialysis tubing, versus control without particles, 500 μL of 1.3 mg/mL nicotine in D.I. water): 50%
release profile (full (100%) coverage with polymer-coated carbon nanoparticles between two layers of dialysis tubing): sizeable difference
